Experimental data reported in article PMC8725909, “1,3,4-Oxadiazole-naphthalene hybrids as potential VEGFR-2 inhibitors: design, synthesis, antiproliferative activity, apoptotic effect, and in silico studies” (Journal of Enzyme Inhibition and Medicinal Chemistry, 2021).
Where “and” joins values, the source holds several entries; their conditions need not be identical. Equal values may be shown once. Read-outs that look alike come from different tables or passages of the source.

Tests used:
[1] = test system: normal adult liver epithelial cells (THLE-2 cells); experiment: MTT cytotoxicity against normal cells; assay type: cell-based; details: Homo sapiens
Procedure: (§1) The MCF-7, HepG2, and THLE-2 cell lines were purchased from the American Type Culture Collection (ATCC, Rockville, MD, USA). MCF-7 and HepG2 cells were grown in a medium that contains Roswell Park Memorial Institute (RPMI) 1640 with L-glutamine, 10% foetal bovine serum (FBS), streptomycin (100 μg/ml) and penicillin (100 U/ml). While THLE-2 cells were cultivated in Bronchial Epithelial Growth Media (BEGM) with 10% FBS, 5 ng/ml EGF, and 70 ng/ml phosphoethanolamine. All cells were maintained in a humidified incubator and 5% (v/v) CO2 atmosphere at 37 °C[60].
(§2) The MCF-7, HepG2, and THLE-2 cells were tested for cytotoxicity using the 3–(4, 5-dimethylthiazol-2-yl)-2,5-diphenyltetrazolium bromide (MTT) assay. The ability of living cells to reduce the yellow product MTT to a blue product, formazan, via a reduction reaction that occurs in the mitochondria is used to assess cell population growth. In this assay, 5000 cells/well were plated in a 96-well plate and allowed to grow for 24 h before being treated with over-mentioned suitable media containing increased concentrations of tested compounds (0, 0.1, 1, 10, 100, and 1000 µM). Each experiment was conducted in triplicate. After removing the media, 100 µL of MTT was added to each well and incubated for 4 h. Following that, 100 µL of dimethyl sulfoxide (DMSO) solution was added to solubilise the resulting formazan product, and absorbance at 570 nm was measured using an ELISA microplate reader (Epoc-2 C micro-plate reader, Bio Tek, VT, USA). The IC50 values [the concentration required to inhibit cell viability by 50%] were calculated.

[2] = test system: MCF-7 (human breast cancer cell line); experiment: MTT cytotoxicity assay, MCF-7; assay type: cell-based
Procedure: (§3) MTT assay was used to assess the cytotoxic activities of the synthesised compounds against MCF-7 (human breast cancer cell line) and HepG2 (human hepatocellular carcinoma cell line).
as §1, §2

[3] = test system: VEGFR-2; experiment: VEGFR-2 level in HepG2 cells by ELISA; assay type: cell-based, human; details: VEGFR-2 concentration in HepG2 cells after treatment; control 1773 ± 15.01; mean ± SEM of three experiments
Procedure: In vitro VEGFR-2 concentration was evaluated using Enzyme-Linked Immunosorbent Assay (ELISA) kit (Cat. NO. EK0544) (AVIVA System Biology, USA) according to manufacturer instructions.

[4] = test system: HepG2 cells; experiment: Annexin-V/propidium iodide apoptosis assay; assay type: cell-based, human; details: HepG2, 8.8 µM, 48 h, mean ± SEM of three experiments
Procedure: The apoptosis induced by compound 5 was quantified using an Annexin-V/propidium iodide (PI) staining assay. Compound 5 was applied to HepG2 cells at a concentration of 8.8 µM.
To assess the effect of compound 5 on cell apoptosis, Annexin V–FITC Kit was used according to the kit protocol (PN IM3546), followed by flow cytometric analysis. In brief, HepG2 cells were allowed to grow in […], after that treated for 48 h. then, washed in phosphate-buffered saline and suspended to 5 × 10^5–5 × 10^6 cells/mL in 1X binding buffer. Then we added to 100 µL of the cell suspensions, 5 µL of dissolved PI, and 1 µL of annexin VFITC solution and incubated in the dark for 15 min. Next to that, we added 400 µL of ice-cold 1X binding buffer and mixed gently. Apoptotic cells were determined by flow cytometric analysis on a COULTER® EPICS® XL™ Flow Cytometer (USA)[67]^,[71]^,[72].

[5] = test system: caspase-3; experiment: Caspase-3 determination by ELISA; assay type: cell-based, human; details: HepG2, 8.8 µM, 24 h
Procedure: To test the effect of the synthesised compounds on caspase-3 levels, the most promising member 5, at a concentration of 8.8 µM, was applied to the most sensitive cells (HepG2) for 24 h.
The effect of compound 5 on the Caspase-3 level was assessed using an ELISA kit (Catalog # KHO1091) according to manufacturer instructions.

[6] = test system: HepG2 cells; experiment: Cell cycle analysis by flow cytometry (propidium iodide); assay type: cell-based, human; details: HepG2, 8.8 µM, 48 h
Procedure: As a control, HepG2 cells were not treated with compound 5.
The effect of compound 5 on the cell cycle phases was investigated using propidium iodide staining and flow cytometric analysis according to the cell cycle kit (PN C03551). Briefly, HepG2 cells were allowed to grow in […], then treated with compound 5 for 48 h. After that, the cells were harvested and cell fixation was performed, cells were centrifuged at 2000 rpm for 5 min then, the supernatant was aspirated. The pellet of fixed cells was resuspended in a 0.5 ml cell cycle kit, vortexed, and incubated at 25 °C for 15 min. Finally, DNA was stained with 50 µg/ml propidium iodide for 30 min. Flow cytometric analysis of cell cycle performed on a COULTER® EPICS® XL™ Flow Cytometer (USA)[67–70].

[7] = test system: HepG2 (human hepatocellular carcinoma cell line); experiment: MTT cytotoxicity assay, HepG2; assay type: cell-based
Procedure: as §3, §1, §2

[8] = set-up: method as in PMID 25895472; details: cited from earlier work
[9] = set-up: method as in PMID 33707933; details: 200 mg once daily, patients with advanced solid tumours; cited from earlier work
[10] = THLE-2, normal liver epithelial cells, MTT, mean ± SEM of at least three experiments, read-out: THLE-2 IC50
[11] = MCF7, MTT assay, mean ± SEM of at least three experiments, read-out: IC50 MCF-7
[12] = HepG2, MTT assay, mean ± SEM of at least three experiments, read-out: IC50 HepG2

Row | Structure (SMILES) | IC50 [2, 11] [µM] | VEGFR-2 (pg/ml) HepG2 [3] | IC50 [7, 12] [µM] | IC50 ([2]; MCF7, read-out: IC50 MCF-7) [µM] | IC50 ([7]; HepG2, read-out: IC50 HepG2) [µM] | further results
1 | COc1ccc2cc(C(C)c3nnc(SCC(=O)NCc4ccccc4)o3)ccc2c1 (stereo not drawn) [Compound 5, N-Benzyl-2-{[5-(1-(6-methoxynaphthalen-2-yl)ethyl)-1,3,4-oxadiazol-2-yl]thio}acetamide] | 9.7 ± 0.75 | 610.4 pg/mL and 610.4 ± 3.46 pg/mL | 8.8 ± 0.69 | – | – | IC50 [1, 10]: 33.7 ± 1.35 µM; Apoptosis (%) ([4]; control 0.51 ± 0.03): 22.86% and 22.86 ± 1.28 %; Necrosis (%) ([4]; control 1.25 ± 0.08): 11.26 ± 0.77 %; increase in the level of caspase-3 compared to control cells [5]: 5.61 fold; percentage of cells in Pre-G1 phase ([6]; control 1.76%): 34.12%; percentage of cells in S phase ([6]; control 27.59%): 42.05%; percentage of cells in G0/G1 phase ([6]; control 51.31%): 43.91%
2 | COc1ccc2cc(C(C)c3nnc(SCC(=O)Nc4ccccc4)o3)ccc2c1 (stereo not drawn) [Compound 6, 2-{[5-(1-(6-Methoxynaphthalen-2-yl)ethyl)-1,3,4-oxadiazol-2-yl]thio}-N-phenylacetamide] | 13.2 ± 1.12 | – | 12.3 ± 0.87 | – | – | –
3 | COc1ccc2cc(C(C)c3nnc(SCC(=O)Nc4ccccc4C)o3)ccc2c1 (stereo not drawn) [Compound 7, 2-{[5-(1-(6-Methoxynaphthalen-2-yl)ethyl)-1,3,4-oxadiazol-2-yl]thio}-N-(o-tolyl)acetamide] | 13.6 ± 1.09 | – | 12.5 ± 1.09 | – | – | –
4 | COc1ccc2cc([C@H](C)c3nnc(SCC(=O)Nc4cccc(C)c4)o3)ccc2c1 [Compound 8, 2-{[5-(1-(6-Methoxynaphthalen-2-yl)ethyl)-1,3,4-oxadiazol-2-yl]thio}-N-(m-tolyl) acetamide] | 10.4 ± 0.92 | 583.7 pg/mL and 583.7 ± 1.93 pg/mL | 9.5 ± 0.87 | – | – | IC50 [1, 10]: 16.7 ± 0.73 µM
5 | COc1ccc2cc(C(C)c3nnc(SCC(=O)Nc4ccc(C)cc4)o3)ccc2c1 (stereo not drawn) [Compound 9, 2-{[5-(1-(6-Methoxynaphthalen-2-yl)ethyl)-1,3,4-oxadiazol-2-yl]thio}-N-(p-tolyl)acetamide] | – | – | – | 83.5 ± 7.79 | 83.7 ± 6.52 | –
6 | COc1ccc2cc(C(C)c3nnc(SCC(=O)Nc4c(C)cccc4C)o3)ccc2c1 (stereo not drawn) [Compound 10, N-(2,6-Dimethylphenyl)-2-{[5-(1-(6-methoxynaphthalen-2-yl)ethyl)-1,3,4-oxadiazol-2-yl]thio}acetamide] | 12.5 ± 0.74 | – | 11.8 ± 1.04 | – | – | –
7 | COc1cccc(NC(=O)CSc2nnc(C(C)c3ccc4cc(OC)ccc4c3)o2)c1 (stereo not drawn) [Compound 11, 2-{[5-(1-(6-Methoxynaphthalen-2-yl)ethyl)-1,3,4-oxadiazol-2-yl]thio}-N-(3-methoxyphenyl)acetamide] | 11.4 ± 0.81 | – | 10.7 ± 0.58 | – | – | –
8 | COc1ccc2cc(C(C)c3nnc(SCC(=O)NC4CCCCC4)o3)ccc2c1 (stereo not drawn) [Compound 12, N-Cyclohexyl-2-{[5-(1-(6-methoxynaphthalen-2-yl)ethyl)-1,3,4-oxadiazol-2-yl]thio}acetamide] | – | – | – | 25.5 ± 2.02 | 24.6 ± 2.81 | –
9 | COc1ccc2cc(C(C)c3nnc(SCC(=O)Nc4ccc(Cl)cc4)o3)ccc2c1 (stereo not drawn) [Compound 13, N-(4-Chlorophenyl)-2-{[5-(1-(6-methoxynaphthalen-2-yl)ethyl)-1,3,4-oxadiazol-2-yl]thio}acetamide] | – | – | – | 11.4 ± 0.99 | 10.5 ± 0.93 | –
10 | COc1ccc2cc(C(C)c3nnc(SCC(=O)Nc4ccc(Cl)cc4Cl)o3)ccc2c1 (stereo not drawn) [Compound 14, N-(2,4-Dichlorophenyl)-2-{[5-(1-(6-methoxynaphthalen-2-yl)ethyl)-1,3,4-oxadiazol-2-yl]thio}acetamide] | – | – | – | 11.2 ± 0.69 | 10.4 ± 0.81 | –
11 | COc1ccc2cc(C(C)c3nnc(SCC(=O)Nc4c(Cl)cccc4Cl)o3)ccc2c1 (stereo not drawn) [Compound 15, N-(2,6-Dichlorophenyl)-2-{[5-(1-(6-methoxynaphthalen-2-yl)ethyl)-1,3,4-oxadiazol-2-yl]thio}acetamide] | 9.8 ± 0.46 | 864.5 pg/mL and 864.5 ± 5.92 pg/mL | 8.4 ± 0.72 | – | – | IC50 [1, 10]: 34.9 ± 1.86 µM
12 | COc1ccc2cc([C@H](C)c3nnc(SCC(=O)Nc4ccccc4[N+](=O)[O-])o3)ccc2c1 [Compound 16, 2-{[5-(1-(6-Methoxynaphthalen-2-yl)ethyl)-1,3,4-oxadiazol-2-yl]thio}-N-(2-nitrophenyl) acetamide] | – | 834.9 pg/mL and 834.9 ± 5.17 pg/mL | – | 9.8 ± 0.8 | 8.7 ± 0.72 | IC50 ([1]; THLE-2, read-out: THLE-2 IC50): 29.7 ± 2.23 µM
13 | COc1ccc2cc([C@H](C)c3nnc(SCC(=O)Nc4ccc([N+](=O)[O-])cc4)o3)ccc2c1 [Compound 17, 2-{[5-(1-(6-Methoxynaphthalen-2-yl)ethyl)-1,3,4-oxadiazol-2-yl]thio}-N-(4-nitrophenyl) acetamide] | – | 1067 pg/mL and 1067 ± 4.91 pg/mL | – | 10.4 ± 0.82 | 9.2 ± 0.76 | IC50 ([1]; THLE-2, read-out: THLE-2 IC50): 22.8 ± 1.22 µM
14 | COc1ccc2cc(C(C)c3nnc(SCC(=O)Nc4ccc([N+](=O)[O-])cc4O)o3)ccc2c1 (stereo not drawn) [Compound 18, N-(2-Hydroxy-4-nitrophenyl)-2-{[5-(1-(6-methoxynaphthalen-2-yl)ethyl)-1,3,4-oxadiazol-2-yl]thio}acetamide] | 9.4 ± 0.64 | 1004 pg/mL and 1004 ± 5.49 pg/mL | 8.7 ± 0.75 | – | – | IC50 [1, 10]: 28.6 ± 2.1 µM
15 | CNC(=O)c1cc(Oc2ccc(NC(=O)Nc3ccc(Cl)c(C(F)(F)F)c3)cc2)ccn1 [Sorafenib, reference compound] | 10.8 ± 1.01 | – | 10.2 ± 0.97 | – | – | IC50 [1, 10]: 27.8 ± 1.74 µM
16 | COc1cc2nccc(Oc3ccc(NC(=O)Nc4cc(C)on4)c(Cl)c3)c2cc1OC [Tivozanib] | – | – | – | – | – | half-life [8]: 96 h
17 | Cc1[nH]c(/C=C2\C(=O)Nc3ccc(F)cc32)c(C)c1C(=O)N[C@H]1CCN(C(=O)N(C)C)C1 [Vorolanib] | – | – | – | – | – | safety profile [9]: acceptable safety profile
